Columns and labels:
[1] = system: nail fungus (onychomycosis); test: Repeated topical application of pure allicin on infected toenails of volunteers; type: in vivo
Experimental: In this preliminary study, the effect of repeated topical application of pure allicin on an infected nail was examined. The study was performed on a group of 10 volunteers infected with nail fungus (onychomycosis), wherein only toenails showing visible signs of being infected with a nail fungus were chosen for the topical treatment. […] The allicin solution was kept at 4° C. in citrate buffer pH 6.0 containing 1 M urea in a dark flask. A round cotton pad was cut in the approximate dimensions and size of the infected toenail (1.3 cm diameter×0.3 cm thick). 0.5 ml of the allicin solution was slowly delivered with a pipette to the surface of the cotton pad and the wet cotton pad was placed on the nail, taking precaution so as not to touch the skin surrounding the nail. The toe with the cotton pad was then covered overnight with a strip made of nylon to secure the pad on the nail and to prevent the spread of the volatile smelly odor of allicin. This treatment was repeated every night for 14 days. […] The treatment was then repeated once a week until all the infected regions of the old nail were cut off.

[2] = kept at cold temperatures, pH around 6; cited from earlier work
Trichomonas vaginalis = test: In vitro growth of Trichomonas vaginalis trophozoites with pure allicin (hemacytometer count); type: cell-based; conditions: 24 hours, 37° C.
Experimental: The effect of allicin on the different microorganisms was tested in (i) sensitivity tests to different concentrations of pure allicin in liquid culture tubes containing full nutrient medium; […] The effects of allicin on Trichomonas vaginalis was tested in liquid cultures, and the viability of the trophozoites after exposure to different concentrations of allicin was determined by the methylene blue vital dye exclusion as previously described (Kiernan, 1974). […] Aliquotes were taken following incubation of 24 hours and the number of trophozoites was counted using a hemacytometer.

various microorganisms = test: Sensitivity tests of microorganisms to pure allicin and to allicin from dry alliin/alliinase mixtures (liquid culture, disk filters on agar, tampons); type: cell-based; conditions: for LD50: range over the various microorganisms tested
Experimental: In this experiment, the effect of allicin released upon wetting of the medicated tampons on various microorganisms, kindly provided by Dr. N. Keller from the clinical microbiology laboratory of the Sheba Medical Center (Tel HaShomer, Israel), was tested. The list of microorganisms included various types of yeasts, in particular, Saccharomyces cerevisiae, Candida albicans and Candida Glabrata; and several types of bacteria, in particular, group B Streptococci, methicillin-resistant Staphylococcus aureus (MRSA) and vancomycin-intermediate Staphylococcus aureus (VISA). In addition, two strains of Trichomonas vaginalis, one adherent to the plastic of the tube and the other non-adherent, were tested.
In addition, various mixtures of dry alliin and dry alliinase were placed inside the cleft of vaginal tampons to yield different amounts of allicin in tubes containing liquid medium with bacteria or yeasts, wherein following overnight incubation, aliquots were taken from the tubes and plated on nutrient agar plates, and the number of colonies developed was determined in comparison to untreated controls. The effects of allicin on Trichomonas vaginalis was tested in liquid cultures, and the viability of the trophozoites after exposure to different concentrations of allicin was determined by the methylene blue vital dye exclusion as previously described (Kiernan, 1974).
Dry glass fiber filters on which a solution containing 5, 20 or 30 μg of pure allicin was dripped just before placing on the seeded agar served as standards, and dry glass fiber filters that were placed on the seeded agar were used as controls.

Trichoderma hyphae = test: Antifungal activity of the two-filter delivery system on agar plates (halo of inhibition); type: cell-based; conditions: for inhibition of fungal growth (halo around filter): filters placed 6 h after seeding 5×10^6 spores, 28° C., overnight incubation, FIG. 3A; for inhibition of fungal growth (halo around filter), mature growth: filters placed after 24 hours incubation, further 16 h, FIG. 3B
Experimental: In this experiment, the effect of allicin released upon wetting of the two-filter delivery system on spores of Trichoderma hyphae was tested. In particular, four Petri dish plates containing nutrient agar for fungal growth were seeded with 5×10^6 spores of a test soil fungi (Trichoderma hyphae) and incubated at 28° C. […] Additional two plates in each of which a single glass fiber filter containing either the substrate or the enzyme were placed were used as controls and treated the same way. A fourth plate containing only the fungus served as the positive control, and a fifth plate without any fungus was used as the negative control.
A similar experiment was carried out with identical filters on Petri dish plates that contained a more mature Trichoderma hyphae growth (after 24 hours incubation from seeding of the same number of spores). The filters were placed as described above and the plates were incubated for another 16 h.

[3] = Storage stability of dry alliin/alliinase components and filters (potential to produce allicin); type: physicochemical; conditions: dry form at room temperature

Compound	outcome of infected toenails after treatment ([1]; 0.5 ml of 0.5 mg/ml allicin solution (citrate buffer pH 6.0, 1 M urea) on cotton pad overnight, every night 14 days, then once a week, 10 volunteers)	tolerability: treatment not completed because of garlic smell ([1]; 10 volunteers)	color of the fungus in the nail ([1]; by the third day of the treatment)	time toenails remained fungus free ([1]; in some cases)	color of the emerging new nail ([1]; within two weeks)	degradation rate [2]	Trophozoites (×10^4) (Trichomonas vaginalis; allicin 5 μg/ml)	Trophozoites (×10^4) (Trichomonas vaginalis; allicin 10 μg/ml)	Trophozoites (×10^4) (Trichomonas vaginalis; allicin 15 μg/ml)	Trophozoites (×10^4) (Trichomonas vaginalis; allicin 25 μg/ml)	killing of microorganisms (various microorganisms; all experiments, irrespective of type of microorganism, FIGS. 4-5 and Table 1)	LD50 (various microorganisms)	LD50 (various microorganisms; as μM allicin)	inhibition of fungal growth (halo around filter) (Trichoderma hyphae)	inhibition of fungal growth (halo around filter), mature growth (Trichoderma hyphae)	preservation of potential for producing allicin [3]
C=CCS[S+]([O-])CC=C (stereo not drawn) [allicin, diallyl thiosulfinate]	eight individuals had a remarkably healthy regeneration of their toenails	Two individuals did not complete the treatment	turned from dark green to yellowish white	over 2 years	resumed its natural color	8 %/month	48 ×10^4	45 ×10^4	8 ×10^4	3 ×10^4	effective killing	8 to 15 µg/mL	20 to 50 µM	–	–	–
alliin	–	–	–	–	–	–	–	–	–	–	–	–	–	No such halos were seen	such halo is not visible	–
alliinase	–	–	–	–	–	–	–	–	–	–	–	–	–	No such halos were seen	such halo is not visible	preserved their potential for producing allicin for several months

Reference: patent US20110027341A1, “DEVICE FOR IN SITU PRODUCTION AND TOPICAL ADMINISTRATION OF ALLICIN” (YEDA RESEARCH AND DEVELOPMENT CO., LTD. at the Weizmann …, priority 2008, published 2011)
